From paper PMC6815936, “A Pan-Cyclophilin Inhibitor, CRV431, Decreases Fibrosis and Tumor Development in Chronic Liver Disease Models” (The Journal of Pharmacology and Experimental Therapeutics, 2019)
Read-outs that look alike come from different tables or passages of the source. Square brackets hold non-standard residues; d marks the D form. Peptide text beside a SMILES is read from it. NMeThr(4R-Me,4-(CH2)6NHAc) = CN[C@H](C(=O)O)[C@H](O)[C@H](C)CCCCCCNC(C)=O; NMeL = CN[C@@H](CC(C)C)C(=O)O; NMeV = CN[C@H](C(=O)O)C(C)C; dNMeA = CN[C@H](C)C(=O)O; Abu = CC[C@H](N)C(=O)O

Assays:
[1] = target: T1, recombinant cyclophilin G (PPIG) (Homo sapiens, UniProt Q13427); experiment: Cyclophilin isomerase assay, cyclophilin G; format: biochemical
T1 construct: purchased Cedarlane Laboratories CLENZ463
T1 sequence (Q13427 whole entry): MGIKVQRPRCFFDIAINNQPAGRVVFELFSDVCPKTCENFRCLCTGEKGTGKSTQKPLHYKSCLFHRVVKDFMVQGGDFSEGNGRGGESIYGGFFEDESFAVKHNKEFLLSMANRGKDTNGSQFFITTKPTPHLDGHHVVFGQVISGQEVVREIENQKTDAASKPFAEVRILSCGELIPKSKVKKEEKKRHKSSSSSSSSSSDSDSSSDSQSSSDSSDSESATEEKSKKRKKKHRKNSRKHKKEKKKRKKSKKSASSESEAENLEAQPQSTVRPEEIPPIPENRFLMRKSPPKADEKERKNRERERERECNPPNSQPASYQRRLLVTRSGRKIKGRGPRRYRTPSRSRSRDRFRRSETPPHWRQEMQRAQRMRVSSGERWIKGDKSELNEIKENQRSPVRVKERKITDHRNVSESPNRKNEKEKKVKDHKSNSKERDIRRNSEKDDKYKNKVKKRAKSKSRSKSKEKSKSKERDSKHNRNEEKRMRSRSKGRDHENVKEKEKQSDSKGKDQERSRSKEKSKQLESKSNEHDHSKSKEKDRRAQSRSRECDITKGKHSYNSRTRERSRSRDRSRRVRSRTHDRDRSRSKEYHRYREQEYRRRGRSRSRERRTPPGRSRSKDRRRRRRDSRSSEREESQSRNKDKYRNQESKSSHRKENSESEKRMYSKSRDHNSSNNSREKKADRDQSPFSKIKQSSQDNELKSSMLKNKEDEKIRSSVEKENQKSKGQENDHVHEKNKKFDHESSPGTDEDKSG
Method: Cyclophilin isomerase activity was measured with an assay described by [Kofron et al. (1991)] with adaptations to 96-well plates. In this assay cyclophilins catalyze cis-to-trans isomerization of a proline peptide bond in a nitroanalide-coupled peptide substrate followed by cleavage of the trans-conformer peptide by α-chymotrypsin, release of the p-nitroaniline chromogen, and quantitation of p-nitroaniline by absorbance at 410 nm. All solutions were pre-equilibrated, and all assays were conducted at 4°C. Plates were preloaded with 5 µl peptide solution consisting of N-succinyl-alanine-alanine-proline-phenylalanine-p-nitroanilide (S7388; Sigma-Aldrich) and 400 mM lithium chloride (310468; Sigma-Aldrich) in anhydrous trifluoroethanol (T63002; Sigma-Aldrich). […] Absorbance measurements with a BMG Polarstar Galaxy plate reader were begun immediately and made at 6-second intervals for 6 minutes. Reaction curves were represented by increases in optical density 410 nm as a function of reaction time. For Ki determinations, initial reaction velocities were obtained from the reaction curves and plotted relative to substrate concentration, and the curves were fitted to the enzyme competitive inhibition model (GraphPad Prism) to derive Ki, maximum velocity (Vmax), and Michaelis constant values. […]

[2] = target: T2, MATE-1 (Homo sapiens, UniProt Q96FL8); experiment: Drug transporter inhibition, MATE-1; format: in vitro ADME; settings: MATE-1, HEK293
T2 construct: expressed in transfected cells
T2 sequence (Q96FL8 whole entry): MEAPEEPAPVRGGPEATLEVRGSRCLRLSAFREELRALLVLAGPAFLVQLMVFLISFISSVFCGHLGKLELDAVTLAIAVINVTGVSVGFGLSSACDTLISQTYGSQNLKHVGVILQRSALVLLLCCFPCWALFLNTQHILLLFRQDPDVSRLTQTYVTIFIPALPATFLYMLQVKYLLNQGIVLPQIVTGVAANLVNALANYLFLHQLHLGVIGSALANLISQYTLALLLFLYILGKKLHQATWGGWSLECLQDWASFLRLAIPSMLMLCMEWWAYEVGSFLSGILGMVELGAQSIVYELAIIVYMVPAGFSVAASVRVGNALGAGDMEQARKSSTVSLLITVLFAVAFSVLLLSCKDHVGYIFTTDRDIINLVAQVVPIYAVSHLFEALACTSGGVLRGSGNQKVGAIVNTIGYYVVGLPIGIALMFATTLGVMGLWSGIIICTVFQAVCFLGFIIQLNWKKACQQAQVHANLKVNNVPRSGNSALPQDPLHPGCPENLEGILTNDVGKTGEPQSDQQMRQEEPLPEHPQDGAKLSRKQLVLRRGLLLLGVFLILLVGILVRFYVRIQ
Method: Inhibition of all other transporters was assessed by measuring substrate accumulation in cells recombinantly expressing the transporter. Known inhibitors of each transporter were used as positive controls for the assays. […] Specific, ATP-dependent uptake was determined by subtracting uptake in negative control vesicles and cells not expressing the transporters, and secondly by subtracting uptake in the absence of ATP in the assays. Specific, ATP-dependent uptake was plotted as a function of CRV431 concentrations and fitted to nonlinear regressions to obtain IC50 values.

[3] = test system: CCl4-induced liver fibrosis in C57BL/6 mice; experiment: Carbon tetrachloride mouse model of liver fibrosis; format: in vivo; settings: 50 mg/kg per day oral for 6 weeks, vs vehicle
Method: Carbon tetrachloride (CCl4)–induced liver fibrosis was conducted in C57BL/6J male mice starting at 7 weeks of age. Mice were injected intraperitoneally twice per week with 0.5–0.75 ml/kg CCL4 (289116; Sigma-Aldrich) and corn oil (0.05 ml total dose per mouse) for 6 weeks. CRV431, obeticholic acid (OCA, HY-12222; MedChemExpress), and vehicle were administered by daily oral gavage for the entire duration of the study. CRV431 and OCA were dissolved in a self-microemulsifying drug vehicle ([Trepanier et al., 2018]), and then diluted with PBS. CRV431 was administered at 50 mg/kg per day, and OCA was administered at 10 mg/kg per day.
Blood and livers were collected at the end of the NASH and CCl4 studies. In some studies, serum or plasma was isolated from freshly-collected blood, whereas in other studies blood was frozen for later analysis of CRV431 concentration. Livers were immersion-fixed in zinc-formalin and paraffin-embedded for histologic processing. Liver sections were stained with hematoxylin and eosin for assessment of inflammation, ballooning, and steatosis, and with sirius red for assessment of collagen I and III (fibrosis). Sirius red staining was quantified by blinded analysis in one section per liver using ImageJ software. […]

[4] = test system: six human cell types; experiment: Cytotoxicity analysis, resazurin viability assay
Method: CRV431 cytotoxicity was evaluated in cell culture with six human cell types: Jurkat E6.1 lymphocyte cell line (88042803, person; Sigma-Aldrich), HepaRG hepatocyte cell line (HPRGC10, person; Life Technologies), primary renal epithelial cells (CC-2556, unknown gender; Lonza), primary dermal fibroblasts (CC-2511, person; Lonza), primary bronchial smooth muscle cells (CC-2576, person; Lonza), and primary umbilical vein endothelial cells (CC-2519, person; Lonza). Jurkat cells (suspension cell type) were plated at 35,000 cells/well in 96-well plates. All other cell types (adherent cell types) were plated 2500–10,000 cells/well (adherent cell types) in GelCol bovine collagen-coated (5167; Advanced Biomatrix) 96-well Nunc Edge 2.0 evaporation barrier plates (14387223; Thermo Scientific). Cell culture medium and culture conditions followed suppliers’ recommendations. […] Cell viability was assessed at the end of the 3-day culture period using the In Vitro Toxicology Assay (Tox8-1KT; Sigma-Aldrich). In this assay the oxidoreduction indicator dye, resazurin, is colorometrically converted in proportion to the number of viable cells and measured by absorbance or fluorescence. Fluorescence was measured (excitation 540 nm; emission 590 nm) with a BMG Polarstar Galaxy Microplate Reader.

[5] = target: cyclophilins A, B, D, and G; experiment: Cyclophilin isomerase assay, all isoforms tested; format: biochemical
Method: Cyclophilin isomerase activity was measured with an assay described by [Kofron et al. (1991)] with adaptations to 96-well plates. In this assay cyclophilins catalyze cis-to-trans isomerization of a proline peptide bond in a nitroanalide-coupled peptide substrate followed by cleavage of the trans-conformer peptide by α-chymotrypsin, release of the p-nitroaniline chromogen, and quantitation of p-nitroaniline by absorbance at 410 nm. All solutions were pre-equilibrated, and all assays were conducted at 4°C. Plates were preloaded with 5 µl peptide solution consisting of N-succinyl-alanine-alanine-proline-phenylalanine-p-nitroanilide (S7388; Sigma-Aldrich) and 400 mM lithium chloride (310468; Sigma-Aldrich) in anhydrous trifluoroethanol (T63002; Sigma-Aldrich). […] Cis-peptide represented 55% of the peptide isomers, based on initial reaction bursts, and therefore peptide concentration was corrected to 55% of input in subsequent calculations. […] Absorbance measurements with a BMG Polarstar Galaxy plate reader were begun immediately and made at 6-second intervals for 6 minutes. Reaction curves were represented by increases in optical density 410 nm as a function of reaction time. […]

CC[C@@H]1NC(=O)[C@H]([C@H](O)[C@H](C)CCCCCCNC(C)=O)N(C)C(=O)[C@H](C(C)C)N(C)C(=O)[C@H](CC(C)C)N(C)C(=O)[C@H](CC(C)C)N(C)C(=O)[C@@H](C)NC(=O)[C@H](C)NC(=O)[C@H](CC(C)C)N(C)C(=O)[C@H](C(C)C)NC(=O)[C@H](CC(C)C)N(C)C(=O)[C@@H](C)N(C)C1=O [CRV431] (cyclo(A[dA][NMeL][NMeL][NMeV][NMeThr(4R-Me,4-(CH2)6NHAc)][Abu][dNMeA][NMeL]V[NMeL]))
IC50 Fold Difference ([1]; CsA IC50 vs CRV431 IC50, PPIG): 3.8 | IC50 ([1]; PPIG (Cyp G), one peptide substrate concentration): 7.3 nM | CRV431 Inhibitory Potency vs. CsA [2]: Same (no inhibition) | lowering of the amount of sirius red staining [3]: 43% | CC50 [4]: 23600 nM | lethality ([4]; at the highest concentrations tested (up to 80 µM), 3 days): 100% | IC50 ([5]; range over Cyp A, G, read-out: IC50 values, all cyclophilin isoforms): 2.5 to 7.3 nM | IC50 ([5]; range over isoforms A, G (abstract), read-out: Inhibitory constant or IC50 values): 1 to 7 nM
